# Data taken from patent publication US20240316038A1, “APOL1 INHIBITORS AND METHODS OF USE” (Maze Therapeutics, Inc., priority 2021, published 2024).
# How the values were obtained:
# APOL1 G2 [1] = target: T1, APOL1 G2 (Homo sapiens, UniProt O14791, DEL388-389); experiment: APOL1 calcium transport inhibition assay (GCaMP6f calcium influx, FLIPR) in HEK T-REx/GCaMP6f/APOL1 G2 K6.3 cells; format: cell-based; conditions: inhibition of APOL1-mediated calcium influx; geometric mean of at least 2 assay runs, † = single assay run (technical duplicate)
# T1 construct: expressed in transfected cells; host or cells: HEK293 T-REx clonal lines: HEK T-REx/GCaMP6f/APOL1 G2 K6.3 in A1, HEK293/T-REx APOL1 G2/clone #2 in A2
# T1 sequence (O14791 with tags, fused parts or gaps DEL388-389): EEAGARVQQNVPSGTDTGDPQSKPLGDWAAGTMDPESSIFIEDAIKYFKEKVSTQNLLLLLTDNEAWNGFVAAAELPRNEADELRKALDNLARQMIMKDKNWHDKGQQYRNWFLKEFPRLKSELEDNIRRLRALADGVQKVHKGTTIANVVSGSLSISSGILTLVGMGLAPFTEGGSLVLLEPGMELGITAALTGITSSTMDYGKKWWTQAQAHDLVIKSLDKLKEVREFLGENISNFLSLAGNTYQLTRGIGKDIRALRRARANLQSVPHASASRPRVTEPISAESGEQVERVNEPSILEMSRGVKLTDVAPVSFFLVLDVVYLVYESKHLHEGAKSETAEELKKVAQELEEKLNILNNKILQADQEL
# In short: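 HEK293 cells stably expressing GCaMP6f, APOL1 G2 induced 6 h with doxycycline (20 ng/mL added), then washed into Ca2+-free Tyrode's buffer pH 7.4. Compounds (8-point dose response) preincubated 10 min at room temperature, then Ca2+ injected to 5 mM final and influx read on FLIPR. AC50 reported as geometric mean of runs.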
# APOL1 G2 [2] = target: T1, APOL1 G2; experiment: Rescue of HEK293 cell death caused by overexpression of APOL1 (CellTiter-Glo luminescence), HEK293/T-REx APOL1 G2/clone #2; format: cell-based; conditions: reversal of cell death caused by overexpression of APOL1; geometric mean of at least 2 assay runs, † = single assay run (technical duplicate)
# In short: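 Rescue EC50s come from four-parameter logistic fits, geometric mean of at least 2 runs on separate days, each in duplicate. Readout: CellTiter-Glo luminescence after 17 h at 37 °C of 5,000 HEK293/T-REx APOL1 G2 clone #2 cells/well, with 6 ng/mL doxycycline to induce APOL1 and 3-fold serial compound dilutions in 0.5% DMSO.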
SMILES,AC50 (APOL1 G2 [1]) [nM],EC50 (APOL1 G2 [2]) [nM]
"C[C@@H]1CN(CCc2cc(C#N)cc(C#N)c2)C[C@H]1COc1ccc(S(C)(=O)=O)cc1 [Compound 145, 5-{2-[(3S,4S)-3-[(4-methane-sulfonylphen-oxy)methyl]-4-methylpyrroli-din-1-yl]ethyl}-benzene-1,3-dicarbonitrile]",356,243
"CC(CN1C[C@@H](COc2ccc(S(C)(=O)=O)cc2)[C@H](C)C1)c1cc(Cl)cc(C#N)c1 (stereo partly drawn) [Compound 146, 3-chloro-5-[1-[(3S,4S)-3-[(4-methanesulfon-ylphenoxy)meth-yl]-4-methyl-pyrrolidin-1-yl]-propan-2-yl]-benzonitrile]",937,273
"C[C@@H]1CN(CCc2cccc(C#N)c2)C[C@H]1COc1ccc(S(C)(=O)=O)cc1 [Compound 149, 3-{2-[(3S,4S)-3-[(4-methane-sulfonylphen-oxy)methyl]-4-methylpyrroli-din-1-yl]ethyl}-benzonitrile]",99.8,272
"C[C@@H]1C[C@H](COc2ccc(S(C)(=O)=O)cc2)CN1CCc1cccc(Cl)c1 [Compound 153, (2R,4S)-1-[2-(3-chlorophenyl)-ethyl]-4-[(4-methanesulfon-ylphenoxy)meth-yl]-2-methyl-pyrrolidine]",374,27.8
"C[C@@H]1C[C@H](COc2ccc(S(=O)(=O)C3CNC3)cc2)CN1CCc1cccc(C#N)c1 [Compound 156, 3-{2-[(2R,4S)-4-{[4-(azetidine-3-sulfonyl)phenoxy]methyl}-2-methylpyrrolidin-1-yl]ethyl}benzonitrile]",311,178
"CN=S(C)(=O)c1ccc(OC[C@H]2C[C@@H](C)N(CCc3cccc(C#N)c3)C2)cc1 (stereo partly drawn) [Compound 157, 3-[2-[(2R,4S)-2-methyl-4-({4-[methyl(methyli-mino)oxo-λ^6-sulfanyl]phenoxy}methyl)pyrrolidin-1-yl]ethyl}benzonitrile]",441,38.9
"C[C@@H]1CC[C@H](COc2ccc(S(C)(=O)=O)cc2)CN1CCc1cccc(Cl)c1 [Compound 160, (2R,5S)-1-[2-(3-chlorophenyl)ethyl]-5-[(4-methanesulfonylphenoxy)methyl]-2-methylpiperidine]",382,584
"C[C@@H]1C[C@H](COc2ccc(S(=O)(=O)C3CNC3)cc2)CN1CCc1cc(Cl)cc(C#N)c1 [Compound 161, 3-{2-[(2R,4S)-4-{[4-(azetidine-3-sulfonyl)phenoxy]methyl}-2-methylpyrrolidin-1-yl]ethyl}-5-chlorobenzonitrile]",878,191
"C[C@@H]1C[C@H](COc2ccc(S(=O)(=O)CCCS(C)(=O)=O)cc2)CN1CCc1cccc(C#N)c1 [Compound 162, 3-{2-[(2R,4S)-4-{[4-(3-methanesulfonylpro-panesulfonyl)phe-noxy]methyl}-2-methylpyrrolidin-1-yl]ethyl}benzonitrile]",233,27.9
"C[C@@H]1CN(CCc2cccc(S(F)(F)(F)(F)F)c2)C[C@H]1COc1ccc(S(C)(=O)=O)cc1 [Compound 163, (3S,4S)-3-[(4-methanesulfonylphenoxy)methyl]-4-methyl-1-{2-[3-(pentafluoro-λ^6-sulfanyl)phenyl]ethyl}pyrrolidine]",1150,> 385
"C[C@@H]1C[C@H](COc2ccc(S(=O)(=O)CCCS(C)(=O)=O)cc2)CN1CCc1cc(Cl)cc(C#N)c1 [Compound 164, 3-chloro-5-{2-[(2R,4S)-4-{[4-(3-methanesulfonylpro-panesulfonyl)phe-noxy]methyl}-2-methylpyrrolidin-1-yl]ethyl}benzonitrile]",364,34.1
"C[C@@H]1C[C@H](COc2ccc(S(=O)(=O)CCO)cc2)CN1CCc1cc(Cl)cc(C#N)c1 [Compound 165, 3-chloro-5-{2-[(2R,4S)-4-{[4-(2-hydroxyethanesul-fonyl)phenoxy]meth-yl}-2-methylpyrrolidin-1-yl]ethyl}benzonitrile]",409,30.2
